This is an account of results in US8975398B2, “NAMPT inhibitors” (AbbVie Inc., priority 2012, dated 2015).

The target in assay [1] is NAMPT (human, recombinant, C-terminally His-tagged) (Homo sapiens, UniProt P43490). The assay is described as follows: Time-Resolved Fluorescence Resonance Energy Transfer (TR-FRET) Binding Assay of NAMPT. The note with it: 6.8 nM NAMPT, 200 nM probe, equilibrated 3 hours, absence of substrates. In outline:
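Probe displacement measured by TR-FRET (Ex 337 nm; 520/495 nm ratio) after 3 h room-temperature equilibration of compound with 6.8 nM His-tagged human NAMPT, 1 nM Tb-anti-His antibody and 200 nM Oregon Green 488 nicotinamide-site probe, pH 7.5 HEPES buffer, 2% DMSO. Control-normalized data fit four-parameter logistic for IC50.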

The target in the next assay is NAMPT (Homo sapiens, UniProt P43490). As to the kind of experiment: Time-Resolved Fluorescence Resonance Energy Transfer (TR-FRET) Binding Assay of NAMPT with PRPP. The note with it: 2 nM NAMPT, 2 nM probe, 200 uM PRPP and 2.5 mM ATP, equilibrated 16 hours. In outline:
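Binding measured by TR-FRET after a 16-hour equilibration meant to permit enzymatic compound modification. Substrates present at 200 uM PRPP and 2.5 mM ATP, with 2 nM enzyme, 2 nM probe, 1 nM Tb-anti-His antibody and 2% DMSO final.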
Background: Time-resolved FRET reads energy transfer from a long-lived donor to a nearby acceptor.

By pIC50 is commonly meant the IC50 on a negative log10 scale, so that one unit is a factor of ten.

pIC50: −log10 of the molar value.

Chain of NAMPT (P43490 whole entry): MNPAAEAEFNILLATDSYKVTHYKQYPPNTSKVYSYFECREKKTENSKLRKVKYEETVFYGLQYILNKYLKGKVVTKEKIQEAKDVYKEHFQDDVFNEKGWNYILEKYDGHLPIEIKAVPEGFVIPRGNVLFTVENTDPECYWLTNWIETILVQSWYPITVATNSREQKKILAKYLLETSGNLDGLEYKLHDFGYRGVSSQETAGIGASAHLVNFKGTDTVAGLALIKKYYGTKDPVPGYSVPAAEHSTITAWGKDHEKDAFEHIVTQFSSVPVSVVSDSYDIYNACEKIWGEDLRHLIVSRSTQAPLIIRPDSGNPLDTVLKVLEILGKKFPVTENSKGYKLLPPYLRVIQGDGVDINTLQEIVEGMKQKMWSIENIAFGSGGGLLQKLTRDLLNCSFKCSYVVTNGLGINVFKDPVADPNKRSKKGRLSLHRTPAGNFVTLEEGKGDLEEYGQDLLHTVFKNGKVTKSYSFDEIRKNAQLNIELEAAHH
Chain of NAMPT (human, recombinant, C-terminally His-tagged) (P43490 whole entry): as above

With `CC(C)C(C)C(=O)N1CCC(c2ccc(NC(=O)C3CN(c4cccnn4)C3)cc2)CC1` (stereo not shown) [Example 326, N-{4-[1-(2,3-dimethylbutanoyl)piperidin-4-yl]phenyl}-1-(pyridazin-3-yl)azetidine-3-carboxamide], the pIC50 in assay [1] was 7.74; on NAMPT it was 9.20.

Consider `CC(C)(C)CC(=O)N1CCC(c2ccc(NC(=O)C3CN(c4cccnn4)C3)cc2)CC1` [Example 327, N-{4-[1-(3,3-dimethylbutanoyl)piperidin-4-yl]phenyl}-1-(pyridazin-3-yl)azetidine-3-carboxamide], for which the negative-log IC50 (pIC50) in assay [1] was 7.90; at NAMPT, 9.18.

As for `CCC(CC)C(=O)N1CCC(c2ccc(NC(=O)C3CN(c4cccnn4)C3)cc2)CC1` [Example 328, N-{4-[1-(2-ethylbutanoyl)piperidin-4-yl]phenyl}-1-(pyridazin-3-yl)azetidine-3-carboxamide], the pIC50 was 7.91 in assay [1] and 9.21 on NAMPT.

For the compound `CCCCCCC(=O)N1CCC(c2ccc(NC(=O)C3CN(c4cccnn4)C3)cc2)CC1` [Example 329, N-[4-(1-heptanoylpiperidin-4-yl)phenyl]-1-(pyridazin-3-yl)azetidine-3-carboxamide], the figures for the pIC50 (in assay [1]; at NAMPT) were 7.62 and 9.21, respectively.

Consider `C=CCC(=O)N1CCC(c2ccc(NC(=O)C3CN(c4cccnn4)C3)cc2)CC1` [Example 330, N-{4-[1-(but-3-enoyl)piperidin-4-yl]phenyl}-1-(pyridazin-3-yl)azetidine-3-carboxamide], for which the pIC50 in assay [1] was 7.50; at NAMPT, 9.05.

Take `C=CCCC(=O)N1CCC(c2ccc(NC(=O)C3CN(c4cccnn4)C3)cc2)CC1` [Example 331, N-{4-[1-(pent-4-enoyl)piperidin-4-yl]phenyl}-1-(pyridazin-3-yl)azetidine-3-carboxamide]: the pIC50 is 7.60 in assay [1] and 9.08 at NAMPT.

On to `O=C(Nc1ccc(C2CCN(C(=O)CC(F)(F)F)CC2)cc1)C1CN(c2cccnn2)C1` [Example 332, 1-(pyridazin-3-yl)-N-{4-[1-(3,3,3-trifluoropropanoyl)piperidin-4-yl]phenyl}azetidine-3-carboxamide], for which the pIC50 in assay [1] was 7.66; at NAMPT it was 9.16.

For `COCC(=O)N1CCC(c2ccc(NC(=O)C3CN(c4cccnn4)C3)cc2)CC1` [Example 333, N-{4-[1-(methoxyacetyl)piperidin-4-yl]phenyl}-1-(pyridazin-3-yl)azetidine-3-carboxamide], the negative logarithm of the IC50 (pIC50) in assay [1] is 7.29; at NAMPT, 9.20.

As to `CSCC(=O)N1CCC(c2ccc(NC(=O)C3CN(c4cccnn4)C3)cc2)CC1` [Example 334, N-(4-{1-[(methylsulfanyl)acetyl]piperidin-4-yl}phenyl)-1-(pyridazin-3-yl)azetidine-3-carboxamide], the pIC50 in assay [1] was 7.74; on NAMPT, 9.24.

Consider `COCCOCC(=O)N1CCC(c2ccc(NC(=O)C3CN(c4cccnn4)C3)cc2)CC1` [Example 335, N-(4-{1-[(2-methoxyethoxy)acetyl]piperidin-4-yl}phenyl)-1-(pyridazin-3-yl)azetidine-3-carboxamide], for which the negative logarithm of the IC50 (pIC50) in assay [1] is 6.68; on NAMPT, 8.99.

With `O=C(Nc1ccc(C2CCN(C(=O)CC[N+](=O)[O-])CC2)cc1)C1CN(c2cccnn2)C1` [Example 336, N-{4-[1-(3-nitropropanoyl)piperidin-4-yl]phenyl}-1-(pyridazin-3-yl)azetidine-3-carboxamide], the figures for the pIC50 (in assay [1]; at NAMPT) were 7.11 and 9.31, respectively.

In the case of `CSCCC(=O)N1CCC(c2ccc(NC(=O)C3CN(c4cccnn4)C3)cc2)CC1` [Example 337, N-(4-{1-[3-(methylsulfanyl)propanoyl]piperidin-4-yl}phenyl)-1-(pyridazin-3-yl)azetidine-3-carboxamide], the negative logarithm of the IC50 (pIC50) is 7.30 in assay [1] and 9.28 at NAMPT.

`C#CCCC(=O)N1CCC(c2ccc(NC(=O)C3CN(c4cccnn4)C3)cc2)CC1` [Example 338, N-{4-[1-(pent-4-ynoyl)piperidin-4-yl]phenyl}-1-(pyridazin-3-yl)azetidine-3-carboxamide]: the negative logarithm of the IC50 (pIC50) in assay [1] is 7.56; on NAMPT it was 9.28.

Regarding `O=C(Nc1ccc(C2CCN(C(=O)C3CCCCC3)CC2)cc1)C1CN(c2cccnn2)C1` [Example 339, N-{4-[1-(cyclohexylcarbonyl)piperidin-4-yl]phenyl}-1-(pyridazin-3-yl)azetidine-3-carboxamide], the values for the pIC50 (in assay [1]; at NAMPT) were 7.75 and 9.18, respectively.

For the compound `O=C(Nc1ccc(C2CCN(C(=O)CC3CCCCC3)CC2)cc1)C1CN(c2cccnn2)C1` [Example 340, N-{4-[1-(cyclohexylacetyl)piperidin-4-yl]phenyl}-1-(pyridazin-3-yl)azetidine-3-carboxamide], the pIC50 in assay [1] is 7.75; on NAMPT, 9.14.

Turning to `Cc1cccc(C(=O)N2CCC(c3ccc(NC(=O)C4CN(c5cccnn5)C4)cc3)CC2)c1` [Example 341, N-{4-[1-(3-methylbenzoyl)piperidin-4-yl]phenyl}-1-(pyridazin-3-yl)azetidine-3-carboxamide], the pIC50 in assay [1] was 7.45; at NAMPT, 9.14.

On to `O=C(Nc1ccc(C2CCN(C(=O)c3ccccc3O)CC2)cc1)C1CN(c2cccnn2)C1` [Example 342, N-{4-[1-(2-hydroxybenzoyl)piperidin-4-yl]phenyl}-1-(pyridazin-3-yl)azetidine-3-carboxamide], for which the pIC50 in assay [1] is 7.88; on NAMPT it was 9.16.

With `O=C(Nc1ccc(C2CCN(C(=O)c3cccc(O)c3)CC2)cc1)C1CN(c2cccnn2)C1` [Example 343, N-{4-[1-(3-hydroxybenzoyl)piperidin-4-yl]phenyl}-1-(pyridazin-3-yl)azetidine-3-carboxamide], the negative logarithm of the IC50 (pIC50) in assay [1] was 8.21; on NAMPT, 9.14.

Consider `O=C(Nc1ccc(C2CCN(C(=O)c3ccc(O)cc3)CC2)cc1)C1CN(c2cccnn2)C1` [Example 344, N-{4-[1-(4-hydroxybenzoyl)piperidin-4-yl]phenyl}-1-(pyridazin-3-yl)azetidine-3-carboxamide], for which the pIC50 in assay [1] was 7.42; at NAMPT it was 9.24.

On to `COc1ccccc1C(=O)N1CCC(c2ccc(NC(=O)C3CN(c4cccnn4)C3)cc2)CC1` [Example 345, N-{4-[1-(2-methoxybenzoyl)piperidin-4-yl]phenyl}-1-(pyridazin-3-yl)azetidine-3-carboxamide], for which the pIC50 in assay [1] is 8.02; at NAMPT it was 9.41.

Take `COc1cccc(C(=O)N2CCC(c3ccc(NC(=O)C4CN(c5cccnn5)C4)cc3)CC2)c1` [Example 346, N-{4-[1-(3-methoxybenzoyl)piperidin-4-yl]phenyl}-1-(pyridazin-3-yl)azetidine-3-carboxamide]: the pIC50 in assay [1] is 7.51; at NAMPT, 9.34.

For `COc1ccc(C(=O)N2CCC(c3ccc(NC(=O)C4CN(c5cccnn5)C4)cc3)CC2)cc1` [Example 347, N-{4-[1-(4-methoxybenzoyl)piperidin-4-yl]phenyl}-1-(pyridazin-3-yl)azetidine-3-carboxamide], the pIC50 in assay [1] was 7.18; at NAMPT, 9.03.

Consider `O=C(Nc1ccc(C2CCN(C(=O)c3cccc(F)c3)CC2)cc1)C1CN(c2cccnn2)C1` [Example 348, N-{4-[1-(3-fluorobenzoyl)piperidin-4-yl]phenyl}-1-(pyridazin-3-yl)azetidine-3-carboxamide], for which the pIC50 is 7.82 in assay [1] and 9.20 at NAMPT.
